# How the values were obtained:
# human CYP11B2 enzyme = biological target: T1, human CYP11B2 enzyme (Homo sapiens, UniProt P19099); assay: Enzyme inhibition activity assay in G402 cells stably expressing human CYP11B2 (aldosterone production from 11-DOC, LC/MS); format: cell-based; settings: 1 µM 11-DOC, 16 hours, aldosterone detected
# T1 construct: the ORF of human CYP11B1 or CYP11B2 were transfected into G402 cells; expressed in transfected cells
# T1 sequence (P19099 25-503): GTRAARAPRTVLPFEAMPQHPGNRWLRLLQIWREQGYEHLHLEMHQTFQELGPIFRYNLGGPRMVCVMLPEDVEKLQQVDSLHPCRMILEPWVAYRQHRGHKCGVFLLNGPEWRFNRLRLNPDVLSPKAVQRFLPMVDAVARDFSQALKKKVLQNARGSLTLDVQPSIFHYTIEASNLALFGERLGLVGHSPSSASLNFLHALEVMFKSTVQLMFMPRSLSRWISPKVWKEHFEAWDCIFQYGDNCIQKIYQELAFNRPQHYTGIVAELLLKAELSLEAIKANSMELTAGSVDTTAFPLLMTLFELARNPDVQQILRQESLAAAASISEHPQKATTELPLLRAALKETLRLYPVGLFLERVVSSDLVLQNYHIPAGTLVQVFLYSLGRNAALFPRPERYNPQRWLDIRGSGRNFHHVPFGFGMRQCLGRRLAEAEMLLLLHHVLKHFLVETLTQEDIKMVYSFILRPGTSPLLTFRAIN
# Source text: (§1) G402 cells (ATCC, CRL 1440) are epithelioid cells isolated from the kidney of a patient with renal failure and are a type of leiomyoblastoma. For the screening of highly specific CYP11B2 inhibitors, we specifically used G402 cell lines stably expressing human CYP11B2 enzyme or human CYP11B1 enzyme for experimental development.
# (§2) Construction of Stably Transfected Cell Lines: Expression plasmids containing suitable promoters, suitable drug resistance markers, and the ORF of human CYP11B1 or CYP11B2 were transfected into G402 cells using standard techniques. The cells were then screened using the specific puromycin resistance marker. Monoclonal cells stably expressing human CYP11B2 were selected for expansion, and 11-deoxycorticosterone (11-DOC) was used as the specific substrate to evaluate enzyme activity based on aldosterone production. Monoclonal cells stably expressing human CYP11B1 were selected for expansion, and 11-deoxycortisol (11-DC) was used as the specific substrate, with cortisol production as the detection target for specific enzyme activity evaluation. The G402 cell lines stably expressing CYP11B1/CYP11B2 were cultured at 37 °C, 5% CO2, 95% air in complete medium (McCoy's 5A + 10% FBS + 1% PS + 0.5 µg/mL puromycin).
# (§3) Enzyme Inhibition Activity Assay: CYP11B1 G402/CYP11B2 G402 cells were spread out flatly in cell culture plates. After 24 hours, the medium was changed to an enzyme testing system (DMEM/F12 + 2.5% charcoal-stripped FCS). Small molecule inhibitors at various concentrations were added. After 1 hour, appropriate concentrations of specific substrates (1 µM 11-DOC / 1 µM 11-DC) were added and co-incubated with the cells for 16 hours. Cells were then collected, and specific products were detected using LC/MS methods with an AB SCIEX TRIPLE QUAD 5500+, CTO-40S instrument (CYP11B2 enzyme detecting aldosterone; CYP11B1 enzyme detecting cortisol).
# (§4) The IC50 values of the compounds were determined based on the G402 testing system. The dose-dependent inhibition of enzyme activity was calculated by plotting the added inhibitor concentration (x-axis) against the percentage of product inhibitory activity relative to the control group (y-axis) based on product formation at various compound concentrations. The following data were then fitted using the least squares method with XLfit 5.5.0 for a four-parameter logistic curve fit: [formula] • Y-axis: Percentage of product inhibitory activity relative to the control group; • logIC50: IC50 was determined using XLFit.
# (§5) The maximum enzyme activity corresponds to the amount of control product steroid/aldosterone in the absence of inhibitor, set as 100%. The minimum enzyme activity corresponds to the amount of reference control product steroid/aldosterone in the presence of inhibitor. Table 3 Inhibitory Activity of the Compounds of the Present Disclosure on CYP11B2 and CYP11B1
# [1] = Pharmacokinetic determination in mice after gavage administration (P.O.); format: in vivo; settings: male, CD-1, mouse, po, 10 mg/kg, plasma
# Experimental: Mice and rats were used as test animals to study the pharmacokinetic behavior of the compounds of the present disclosure in plasma following gavage administration (P.O.). Plasma samples were collected at specific time points, compound concentrations in plasma were detected by LC-MS/MS, and pharmacokinetic parameters were calculated to evaluate the pharmacokinetics.
# • Mice, CD-1, male, Zhejiang Vital River Laboratory Animal Technology Co., Ltd. • Rats, Sprague-Dawley, male, Zhejiang Vital River Laboratory Animal Technology Co., Ltd., Shanghai Jihui Experimental Animal Breeding Co., Ltd.
# After administration to mice and rats, venous blood samples of 0.03 mL and 0.2 mL, respectively, were collected at 0.0833 (IV), 0.25, 0.5, 1, 2, 4, 8, and 24 hours and placed in EDTA-K2 test tubes. Plasma was separated by centrifugation at 4 °C, 4000 g for 5 minutes and stored at -80 °C.
# • 1) 10 µL of plasma sample was precipitated by adding 200 µL of acetonitrile, vortex mixed, and centrifuged for 15 minutes. • 2) The processed supernatant was diluted with water and analyzed by LC/MS/MS to determine the concentration of the test compound.
# Pharmacokinetic parameters were calculated using WinNonlin 8.3. The pharmacokinetic parameters for mice P.O. are shown in Table 4, and for rats P.O. in Table 5. Cmax represents the maximum plasma concentration, T1/2 represents the terminal elimination half-life, MRTInf represents the mean residence time, and AUC represents the area under the plasma concentration-time curve. Table 4 Pharmacokinetic Parameters of the Compounds of the Present Disclosure in Mice
# human CYP11B1 enzyme = biological target: T2, human CYP11B1 enzyme (Homo sapiens, UniProt P15538); assay: Enzyme inhibition activity assay in G402 cells stably expressing human CYP11B1 (cortisol production from 11-DC, LC/MS); format: cell-based; settings: 1 µM 11-DC, 16 hours, cortisol detected
# T2 construct: the ORF of human CYP11B1 or CYP11B2 were transfected into G402 cells; expressed in transfected cells
# T2 sequence (P15538 25-503): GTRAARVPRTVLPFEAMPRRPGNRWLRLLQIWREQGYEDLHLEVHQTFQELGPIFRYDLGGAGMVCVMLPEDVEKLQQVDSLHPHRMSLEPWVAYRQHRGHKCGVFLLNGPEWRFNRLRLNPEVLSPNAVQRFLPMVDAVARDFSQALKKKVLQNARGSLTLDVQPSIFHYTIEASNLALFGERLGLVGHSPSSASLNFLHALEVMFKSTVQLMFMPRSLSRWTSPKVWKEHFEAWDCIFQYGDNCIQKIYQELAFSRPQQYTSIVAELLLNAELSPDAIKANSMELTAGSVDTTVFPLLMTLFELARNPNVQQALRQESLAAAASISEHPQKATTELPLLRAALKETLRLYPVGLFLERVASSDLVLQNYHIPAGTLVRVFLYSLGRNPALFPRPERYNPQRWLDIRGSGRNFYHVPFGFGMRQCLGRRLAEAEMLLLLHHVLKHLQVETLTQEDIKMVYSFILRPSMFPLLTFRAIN
# Source text: as §1, §2, §3, §4, §5
Compound,IC50 (human CYP11B2 enzyme) [µM],Cmax [1] [µM],MRT inf [1] [h],half-life [1] [h],AUC(0-t) ([1]; read-out: AUC0-24) [µM·h],IC50 (human CYP11B1 enzyme) [µM]
[2H]C([2H])([2H])NC(=O)N[C@@H]1CCCc2c(-c3ccc4c(c3)COC(=O)N4C)cncc21 [Compound A16],0.0095,51.7,2.37,1.07,184,–
[2H]C([2H])([2H])OC(=O)N[C@@H]1CCCc2c(-c3ccc4c(ccc(=O)n4C)c3)cncc21 [Compound A27],0.005,–,–,–,–,0.213
CNC(=O)N[C@@H]1CCCc2c(-c3ccc4c(c3)COC(=O)N4C)cncc21 [Compound A34],0.0075,–,–,–,–,0.294
[2H]C([2H])([2H])N(C(=O)N[C@@H]1CCCc2c(-c3ccc4c(c3)CCC(=O)N4C)cncc21)C([2H])([2H])[2H] [Compound D16],0.0195,–,–,–,–,1.23
[2H]C([2H])([2H])NC(=O)N[C@@H]1CCOc2c(-c3ccc4c(c3)cc(C#N)n4C)cncc21 [Compound A38],0.0023,–,–,–,–,0.283
[2H]C([2H])([2H])OC(=O)N[C@@H]1CCCc2c(-c3ccc4c(c3)CCC(=O)N4C)cncc21 [Compound D15],0.0025,–,–,–,–,0.128
CNC(=O)N[C@@H]1CCOc2c(-c3ccc4c(c3)cc(C#N)n4C)cncc21 [Compound A37],0.0025,–,–,–,–,0.311
CCC(=O)N[C@@H]1CCCc2c(-c3ccc4c(ccc(=O)n4C)c3)cncc21 [Compound C04],0.0192,–,–,–,–,2.5
CCC(=O)N[C@@H]1CCCc2c(-c3ccc4c(c3)CCCC(=O)N4C)cncc21 [Compound C15],0.0245,–,–,–,–,2.55
[2H]C([2H])([2H])OC(=O)N[C@@H]1CCCc2c(-c3cc(Cl)c4c(ccc(=O)n4C)c3)cncc21 [Compound A52],0.0059,–,–,–,–,0.797
CN(C)C(=O)N[C@@H]1CCCc2c(-c3ccc4c(ccc(=O)n4C)c3)cncc21 [Compound A23],0.0125,–,–,–,–,1.92
[2H]C([2H])([2H])OC(=O)N[C@@H]1CCOc2c(-c3ccc4c(c3)cc(C#N)n4C)cncc21 [Compound A36],0.0013,–,–,–,–,0.136
[2H]C([2H])([2H])OC(=O)N[C@@H]1CCOc2c(-c3ccc4c(c3)CCC(=O)N4C)cncc21 [Compound A13],0.0045,–,–,–,–,0.381
COC(=O)N[C@@H]1CCOc2c(-c3cc(Cl)c4c(ccc(=O)n4C)c3)cncc21 [Compound A53],0.0131,–,–,–,–,2.01
[2H]C([2H])([2H])OC(=O)N[C@@H]1CCCc2c(-c3ccc4c(c3)COC(=O)N4C)cncc21 [Compound A28],0.0036,–,–,–,–,0.111
COC(=O)N[C@@H]1CCOc2c(-c3ccc4c(c3)cc(C#N)n4C)cncc21 [Compound A35],0.0014,–,–,–,–,0.184
[2H]C([2H])([2H])OC(=O)N[C@@H]1CCOc2c(-c3ccc4c(ccc(=O)n4C)c3)cncc21 [Compound A39],0.0101,–,–,–,–,1.45
CN(C)C(=O)N[C@@H]1CCCc2c(-c3ccc4c(c3)CCC(=O)N4C)cncc21 [Compound D11],0.0074,–,–,–,–,1.06
CCC(=O)N[C@@H]1CCCc2c(-c3ccc4c(c3)OCC(=O)N4C)cncc21 [Compound C09],0.031,–,–,–,–,3.85
[2H]C([2H])([2H])NC(=O)N[C@@H]1CCCc2c(-c3ccc4c(c3)CCC(=O)N4C)cncc21 [Compound D08],0.011,–,–,–,–,0.803
COC(=O)N[C@@H]1CCOc2c(-c3ccc4c(c3)COC(=O)N4C)cncc21 [Compound A43],0.0066,–,–,–,–,0.572
[2H]C([2H])([2H])OC(=O)N[C@@H]1CCOc2c(-c3ccc4c(c3)COC(=O)N4C)cncc21 [Compound A40],0.0061,–,–,–,–,0.487
CN1CCN([C@@H]2CCCc3c(-c4ccc5c(c4)CCC(=O)N5C)cncc32)C1=O [Compound D10],0.0047,–,–,–,–,0.275
[2H]C([2H])([2H])OC(=O)N[C@@H]1CCCc2c(-c3cc(F)c4c(ccc(=O)n4C)c3)cncc21 [Compound A48],0.0059,–,–,–,–,0.712
